How the values were obtained:
[1] = Rhenium molecular probe-lipid overlay (dot blot); format: binding; set-up: key to interaction with PE (dot blot): ✓ indicates a positive interaction; x indicates no interaction
Experimental: (§1) The experimental protocol probe-lipid overlay was as follows: 50 μM of each lipids was loaded on to PVDF membranes (Perkin Elmer, USA), which were then incubated with molecular probes. PhenCyano and PhenPyridyl were assessed against eleven lipids including; sphingomyelin (Cat # S0756, Sigma Aldrich, USA), sphingosine (Cat # S7049; Sigma Aldrich, USA), L-phosphatidylethanolamine (Cat # P7943, Sigma Aldrich, USA), monosialodanglioside (GM1; Cat # G7641, Sigma Aldrich, USA), oleoly-L-?-lysophosphatidic acid (Cat # L7260, Sigma Aldrich, USA), palmitic acid (Cat # P5917, Sigma Aldrich, USA), sphingomyelin (Cat # S0756, Sigma Aldrich, USA), sphingosine (Cat # S7049; Sigma Aldrich, USA), L-?-phosphatidylethanolamine (Cat # P7943, Sigma Aldrich, USA), monosialodanglioside (GM1; Cat # G7641, Sigma Aldrich, USA), progesterone (Cat #102722, MP Biomedical, USA), ceramide (Cat # C2137; Sigma Aldrich, USA), triacylglycerol mix C2-C10 (Cat #17810, Sigma Aldrich, USA) and cholesteryl acetate (Cat #151114; Sigma Aldrich, USA).
All other molecular probes were assessed against a panel of six lipids including; sphingomyelin (Cat # S0756, Sigma Aldrich, USA), sphingosine (Cat # S7049; Sigma Aldrich, USA), L-?-phosphatidylethanolamine (Cat # P7943, Sigma Aldrich, USA), monosialodanglioside (GM1; Cat # G7641, Sigma Aldrich, USA), sphingomyelin (Cat # S0756, Sigma Aldrich, USA), sphingosine (Cat # S7049; Sigma Aldrich, USA), L-?-phosphatidylethanolamine (Cat # P7943, Sigma Aldrich, USA), monosialodanglioside (GM1; Cat # G7641, Sigma Aldrich, USA) and triacylglycerol mix C2-C10 (Cat #17810, Sigma Aldrich, USA).
(§2) Lipids were dissolved in ethanol, methanol or isopropanol for loading depending on solubility. Following lipid loading, membranes were left to dry for 20-30 minutes, then they were washed for 10 minutes in cold 10% ethanol, before they were incubated with 10 μM solution of each Rhenium molecular probe in cold 10% ethanol for one hour. Membranes were than washed four times for 10 minutes in cold 10% ethanol prior to imaging. Imaging was performed on an Image Quant Las 4000 (GE, Sweden) luminescent image analyser, with the Rhenium molecular probe being detected by excitation at 460 nm using an epi-blue light source, and detected using an 575 nm ethidium bromide filter.

[2] = Rhenium molecular probe-lipid overlay (dot blot); format: binding; settings: FIG. 7
Experimental: as §1
Lipids were dissolved in ethanol, methanol or isopropanol for loading depending on solubility. […] Imaging was performed on an Image Quant Las 4000 (GE, Sweden) luminescent image analyser, with the Rhenium molecular probe being detected by excitation at 460 nm using an epi-blue light source, and detected using an 575 nm ethidium bromide filter.

[3] = Rhenium probe-lipid overlay, Example 5; format: binding
Experimental: To determine the binding properties of tricarbonyl-(4-cyanophenyltretrazolato)-phenanthroline-rhenium (I) (Rhenium probe) to various lipids, Rhenium probe-lipid overlay was performed using either lipids spotted onto PDVF membranes (Perkin Elmer, USA) or lipid MicroStrips (Echelon Biosciences Inc., Salt Lake City, Utah). The membranes contained at least 100 pmoles of each lipid in individual spots (supplementary table 1) or 10 μL (each in PBS) of 10% (v/v) glycerol, 1% (v/v) CHAPS, 1% (w/v) SDS, 1% (v/v) Tween20, Ecydsone (10 μg/100 μL), cholesterol (10 μg/100 μL), progesterone (10 μg/100 μL), PBS, or 1% (v/v) ethanol; and were incubated with 0.5 mM of Rhenium probe in 1% (w/v) BSA/PBS for 40 minutes and then washed four times for 10 minutes in PBS. Imaging was performed on an Image Quant Las 4000 (GE, Sweden) luminescent image analyser, with the Rhenium probe being detected by excitation at 460 nm using an epi-blue light source, and detected using an 605 nm ethidium bromide filter.

[4] = tested on: Drosophila fat body cells; assay: Live tissue staining with rhenium molecular probes (Examples 10, 13); format: cell-based
Experimental: Probes were dissolved in DMSO to obtain a stock solution with a concentration of 10 mM. Stock solutions were stored at room temperature in a dark place. Working solutions were prepared only at the time of use as the probe has reduced solubility in aqueous solutions. A Working solution was a dilution 1/1000 to 1/500 of the stock in DMSO to PBS or cell medium, and as such the percentage of DMSO used in actual cell experiments was less than 1%.
For tissues, the tissues were isolated in PBS (or other physiological media) and mounted on a coverslip. For cells, these were grown as per normal practice on coverslips.
The media was removed media and replaced with 10-20 μM solution of molecular probes in PBS (or appropriate physiological media/cell media) at a dilution of stock solution from 1/1000-1/500, for 15-30 minutes at physiologically appropriate temperature (37° C. for cell culture or 25° C. for insect larvae). […] If foetal calf serum is necessary for cell health, an increased incubation time may be necessary to obtain adequate staining.
The samples were washed for one minute in PBS. If co-staining was performed, the samples were washed in PBS for 30 seconds, before incubating with counterstain.
Tissues were mounted in optical coupling gel, such as carbomer-940 (Snowdrift farm, Tucson, USA) based gel to prevent dehydration prior to imaging and maintain tissue integrate (Rothstein, E. C., Nauman, M., Chesnick S., Balaban R. S., 2006, Multi-photon excitation microscopy in intact animals Journal of Microscopy 222, 58, 64). For cells, the coverslip was mounted in PBS for immediate imaging.
Samples were imaged immediately following staining.
Rhenium molecular probes were? excited at 800-830 nm using a two-photon pulse laser or 405 steady state laser and detection in the range of 490-670 nm, with an emission maxima at around 570.
Micrographs of 3T3 L1, 453 cells and CHOK1 cells and Drosophila fat body tissue stained with rhenium molecular probes, PhenCyan top, PhenPyridyl bottom are shown in FIG. 10. […] Left: confocal images; Right: fluorescence microscopy images. […]

[5] = Rhenium molecular probe-lipid overlay (dot blot); format: binding; set-up: key to interaction with Progesterone (dot blot): ✓ indicates a positive interaction; x indicates no interaction
Experimental: as §1, §2

[6] = Rhenium molecular probe-lipid overlay (dot blot); format: binding; set-up: key to interaction with Ceramide (dot blot): ✓ indicates a positive interaction; x indicates no interaction
Experimental: as §1, §2

[7] = 10 μM probe, 50 μM lipid on PVDF membrane
[8] = 0.5 mM probe in 1% BSA/PBS, FIG. 6

N#Cc1ccc(-c2nn[n]([Re](=[C]=O)(=[C]=O)=[C]=O)n2)cc1.c1cnc2c(c1)ccc1cccnc12 [PhenCyano, Triscarbonyl phenanthroline (4-cyanophenyltetrazolato)Rhenium(I)]
interaction with PE (dot blot) [1, 7]: ✓ | affinity towards phosphatidylethanolamine (PE), in words ([1]; FIG. 7 / FIG. 8): some affinity | interaction with fatty acid (palmitic acid), in words [2]: no interaction detected | reactivity with long chain fatty acids ([3]; 0.5 mM probe in 1% BSA/PBS): did not react | reactivity with neutral lipids ([3]; 0.5 mM probe in 1% BSA/PBS): did not react | interaction with cholesterol [3, 8]: interacted | interaction with ecdysone [3, 8]: interacted | interaction with progesterone [3, 8]: interacted | reactivity with CHAPS [3, 8]: high level of reactivity | reactivity with deoxycholate [3, 8]: high level of reactivity | reactivity with SDS ([3]; auto-reactivity of SDS alone at 575-605 nm on membrane): some residual background reactivity | reactivity with Tween® 20 ([3]; auto-reactivity of Tween 20 alone at 575-605 nm on membrane): some residual background reactivity | emission spectral profile in the acidic compartment versus lipid droplet ([4]; +2 h PF, following autophagic inducement): blue shift and an increase in emission intensity | staining pattern in Drosophila fat body cells ([4]; live samples, 10-20 μM probe): distribution consistent with lipid droplet staining | interaction with Progesterone (dot blot) [5, 7]: ✓ | affinity towards progesterone, in words ([5]; FIG. 7): some affinity | interaction with Ceramide (dot blot) [6, 7]: x | interaction with ceramide, in words ([6]; FIG. 7): no interaction detected
